Measured values reported in patent US10251861B2, “Methods for treating burn and scar injury using tocotrienol compositions” (Ohio State Innovation Foundation, priority 2012, dated 2019).

How the values were obtained:
[1] = per day; Food and Nutrition Board of the Institute of Medicine; also printed as 1,500 IU; cited from earlier work
[2] = tested on: NF-KB activation; conditions: cited from earlier work; for tumor necrosis factor a (TNF-a)-induced NF-KB activation: similar dose of both compounds
[3] = tested on: IKBa kinase (IKK); conditions: cited from earlier work
[4] = tested on: Akt; conditions: cited from earlier work
[5] = Oral tocotrienol supplementation in animals, tissue levels; type: in vivo
Procedure: (§1) The inventors have also observed that oral supplementation in animals results in enhancement of tocotrienol in tissues such as skin, brain, lung etc. Levels of tocotrienol in human tissues following supplementation is currently being investigated by the inventors' laboratory (IRB protocol 200500034). The patients in the inventors' ongoing study are being orally supplemented with 200 mg twice a day. Recently, pharmacokinetic studies have been performed where humans have been orally supplemented with tocotrienol (dose: 692 mg). Based on this work and the inventors' current study, the inventors plan to use (200×2=400 mg/day; note that for alpha-tocopherol 1 mg=1.51 U) for the inventors' study.

[6] = tested on: IL-1 and IL-6 in serum; conditions: treated rats; vs before nicotine and tocotrienol treatment; cited from earlier work
[7] = tested on: burn-induced scar; experiment: Burn-induced scar outcome after topical tocotrienol (FIG. 1); type: in vivo; conditions: topical treatment vs placebo; 65 days after burn injury; n=8; p<0.05
Procedure: (§2) FIG. 1A-FIG. 1D. Topical vitamin E alpha-tocotrienol improves scar outcome. Alpha-tocotrienol content and scar outcomes were assessed in skin 65 days after burn injury. Representative placebo and T3-treated burn scars depicted (A) (scale bar=1 cm). […] Color (C) and contour (D) were judged by blinded reviewers according to their respective 5-point scales. […] Data are mean+SD (n=8); *p<0.05.

[8] = Ongoing IRB protocol 200500034, oral TCT supplementation before surgery; type: in vivo, human
Procedure: In this protocol, patients are being supplemented 200 mg TCT twice a day for a minimum of 4 weeks prior to surgery. The maximum supplementation has been for over a year (currently on-going supplementation)
as §1
In this protocol, patients are being supplemented 200 mg TCT twice a day for a minimum of 4 weeks prior to surgery.
In this protocol, patients are being supplemented 200 mg TCT twice a day for a minimum of 4 weeks prior to surgery. The maximum supplementation has been for over a year (currently on-going supplementation).

[9] = Alpha-tocotrienol content in burn scar tissue (FIG. 1B); type: in vivo; conditions: topical treatment vs placebo; skin 65 days after burn injury; n=8; p<0.05
Procedure: as §2

[10] = tested on: adhesion molecules (ICAM, VCAM, and E-selectin); conditions: compared among forms of vitamin E; cited from earlier work
[11] = molecular target: T1, HMG-CoA reductase (Homo sapiens, UniProt P04035); conditions: micromolar amounts; cited from earlier work
T1 sequence (P04035 1-888): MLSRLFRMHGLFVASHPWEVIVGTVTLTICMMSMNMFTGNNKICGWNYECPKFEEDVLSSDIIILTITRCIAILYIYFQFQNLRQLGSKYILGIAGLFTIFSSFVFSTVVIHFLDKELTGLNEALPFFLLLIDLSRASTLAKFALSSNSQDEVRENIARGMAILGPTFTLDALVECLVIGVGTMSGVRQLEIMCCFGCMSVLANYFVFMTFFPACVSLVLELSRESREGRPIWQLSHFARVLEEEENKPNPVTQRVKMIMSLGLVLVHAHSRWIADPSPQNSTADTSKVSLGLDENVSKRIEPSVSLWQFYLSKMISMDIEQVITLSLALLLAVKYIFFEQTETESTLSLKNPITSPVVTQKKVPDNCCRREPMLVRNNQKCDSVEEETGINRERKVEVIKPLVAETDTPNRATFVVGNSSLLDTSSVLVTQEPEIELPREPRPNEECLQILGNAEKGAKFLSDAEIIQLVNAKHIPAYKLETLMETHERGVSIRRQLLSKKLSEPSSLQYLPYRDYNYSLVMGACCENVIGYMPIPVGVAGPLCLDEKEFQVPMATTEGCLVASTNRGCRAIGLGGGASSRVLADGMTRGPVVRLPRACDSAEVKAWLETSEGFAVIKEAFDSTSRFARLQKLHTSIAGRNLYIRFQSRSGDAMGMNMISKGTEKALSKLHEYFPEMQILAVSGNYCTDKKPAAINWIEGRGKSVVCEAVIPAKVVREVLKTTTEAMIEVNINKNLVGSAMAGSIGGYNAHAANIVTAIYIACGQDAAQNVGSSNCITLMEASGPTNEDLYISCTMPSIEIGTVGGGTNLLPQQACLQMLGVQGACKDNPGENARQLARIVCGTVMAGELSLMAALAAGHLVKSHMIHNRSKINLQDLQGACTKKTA

Cc1c(C)c2c(c(C)c1O)CC[C@@](C)(CCC[C@H](C)CCC[C@H](C)CCCC(C)C)O2 [alpha-tocopherol]
upper tolerable intake level (UL) [1]: 1,000 mg

Cc1c(O)cc2c(c1C)O[C@](C)(CCC[C@H](C)CCC[C@H](C)CCCC(C)C)CC2 [gamma-tocopherol]
tumor necrosis factor a (TNF-a)-induced NF-KB activation [2]: no effect

CC(C)=CCC/C(C)=C/CC/C(C)=C/CC[C@]1(C)CCc2cc(O)c(C)c(C)c2O1 [gamma-tocotrienol]
TNF-induced activation of IKBa kinase (IKK) [3]: inhibiting
NF-KB activation induced by phorbol myristate acetate, okadaic acid, lipopolysaccharide, cigarette smoke, IL-1I, and epidermal growth factor [2]: abolished
TAK 1/TAB 1-induced NF-KB dependant reporter gene expression [2]: inhibit
constitutive NF-KB activation expressed by certain tumor cells [2]: nullified
tumor necrosis factor a (TNF-a)-induced NF-KB activation [2]: completely abolished
TNF induced Akt activation [4]: inhibit

tocotrienol
tocotrienol in tissues such as skin, brain, lung [5]: enhancement
serum levels of IL-6 [6]: significantly lower
scar color, 5-point scale, blinded reviewers [7]: significantly improved
scar contour, 5-point scale, blinded reviewers [7]: significantly improved
related adverse effects ([8]; 200 mg TCT twice a day, minimum 4 weeks prior to surgery, maximum over a year): no related adverse affects
reaching the skin ([8]; oral dosage of 400 mg per day): sufficient to reach the skin
appearance of scars ([8]; pre-treatment with TCT, observations from ongoing study): Improves
alpha-tocotrienol content in scar tissue [9]: significantly increased
reducing endothelial expression of adhesion molecules and adhesion to monocytes [10]: most effective
activity of HMG-CoA reductase [11]: suppress
